Measurements: a melting point compilation (Tetko et al.)

melting point | Compound
95 to 97 °C | O=S(=O)(NCC1CC1)c1ccc(Cl)nc1
136 to 138 °C | CC(O)c1nc2cc(Cl)ccc2n1C (configuration not stated)
174 to 176 °C | NS(=O)(=O)c1c(Br)cc(F)cc1Br
169 to 171 °C | O=C1CNc2ccc(Br)cc2N1
178 to 180 °C | Cc1nn(-c2ccc(Cl)cc2)c(C)c1CC(=O)O
167 to 169 °C | Cn1c(=O)c2c(ncn2CCCC(=O)O)n(C)c1=O
118 to 120 °C | NCCNc1ccncc1
50 to 52 °C | O=C(Nc1cccc(F)c1)OCC(F)(F)F
116 to 118 °C | CC(C)C(Br)C(=O)NC1CCCCC1 (configuration not stated)
113 to 115 °C | Nc1ccc2oc(CO)nc2c1
192 to 194 °C | COc1cc(F)c(C(=O)O)cc1OC
167 to 169 °C | CC(C)(Nc1ccc([N+](=O)[O-])cc1)C(=O)O
265 to 267 °C | O=C(O)c1cc2cc(Cl)cc(Br)c2o1
204 to 206 °C | Cc1sc2nc(C)n(N)c(=O)c2c1C
124 to 126 °C | Cc1cccc(COc2cccc(C(=O)O)c2)c1
138 to 140 °C | NC(=O)C1(N2CCNCC2)CCCC1
139 to 141 °C | CCC1Oc2c(Cl)cccc2NC1=O (configuration not stated)
115 to 117 °C | COc1ccc(N)cc1CO
71 to 73 °C | CNc1ccc(F)cc1[N+](=O)[O-]
83 to 85 °C | Cc1cccn2c(C=O)cnc12
199 to 201 °C | O=C(O)c1ccc(Cl)c2cccnc12
64 to 66 °C | CCOC(=O)c1c(-c2ccccc2)csc1NC(=O)CCCl
95 to 97 °C | CC(Cl)c1nnnn1-c1ccccc1 (configuration not stated)
69 to 71 °C | CC(C)(C)C1CCN(S(=O)(=O)Cl)CC1

melting point | Compound
234 to 236 °C | Cc1ccc(-n2c(S)nnc2-c2ccccn2)c(C)c1
126 to 128 °C | CS(=O)(=O)Nc1ccc(C(F)(F)F)cc1N
221 to 223 °C | COc1ccc2[nH]c(C(=O)O)cc2c1OC
64 to 66 °C | NCc1ccc(-c2ccncc2)cc1
106 to 108 °C | Cc1c(N)cccc1C(=O)N1CCOCC1
144 to 146 °C | CS(=O)(=O)c1cccc(C(=O)NN)c1
277 to 279 °C | CCNC(C(=O)O)c1ccc(F)c(F)c1 (configuration not stated)
189 to 191 °C | CCOc1ccc(C(=O)N2CCCC(C(=O)O)C2)cc1OCC (configuration not stated)
140 to 142 °C | CCCCOc1ccc(C(=O)O)cc1OCCCC
33 to 35 °C | Nc1ccnn1Cc1ccsc1
179 to 182 °C | Clc1nc(-c2cccnc2)nc2sc(-c3ccccc3)cc12
53 to 55 °C | COCC(C)(O)C(=O)O (configuration not stated)
98 to 101 °C | COc1ccc(Cl)cc1NC(=O)CC(=O)Nc1cc(Cl)ccc1OC
93 to 96 °C | COc1c(Br)cc(Br)cc1C=O
89 to 91 °C | CC(=O)N1CCN(C(=O)CCl)CC1
248 to 250 °C | O=C(O)C=Cc1cn(-c2ccccc2)nc1-c1cccc([N+](=O)[O-])c1
249 to 251 °C | O=c1[nH]cnc2ncccc12
76 to 78 °C | O=C1C(Br)CCN1c1ccccc1F (configuration not stated)
235 to 237 °C | O=C(O)c1ccc(S(=O)(=O)N2CCCCCC2)cc1
150 to 152 °C | N#Cc1cccc(-n2cncn2)c1
75 to 77 °C | COC(=O)CCS(=O)(=O)c1ccc(Br)cc1
132 to 134 °C | CN(CC(C)(C)C)C(=O)c1cccc(C(=O)O)c1
311 to 313 °C | Nc1ccc(-c2nnc3n2CCC3)cc1
250 to 252 °C | NC(=O)c1ccc(-c2csc(N)n2)cc1

melting point | Compound
164 to 166 °C | CC(C)Cn1[nH]c(CC(=O)O)cc1=O
52 to 54 °C | CS(=O)(=O)N1CCCC1C(=O)O (configuration not stated)
110 to 112 °C | O=C(O)CCc1nc2ccccc2o1
134 to 136 °C | O=Cc1cc(C23CC4CC(CC(C4)C2)C3)n[nH]1
169 to 171 °C | O=C(O)c1ccc(F)c(I)c1
108 to 110 °C | CCNc1ncccc1N
193 to 195 °C | O=C(Nc1ccncc1)OCC(F)(F)F
250 to 254 °C | Nn1c(S)nnc1-c1ccncc1
86 to 88 °C | O=C(O)C1C2CCCCC21 (configuration not stated)
107 to 109 °C | Cc1noc(C)c1COc1ccc(C=O)cc1
71 to 73 °C | COCCNc1nc(Cl)nc(Cl)n1
62 to 64 °C | CC(Br)c1ccc2ccccc2c1 (configuration not stated)
99 to 101 °C | CCc1cccc2c(C=O)c[nH]c12
164 to 166 °C | CC1=NN(c2ccc(Br)cc2)C(=O)C1
150 to 152 °C | NC(=O)C1CNc2ccccc21 (configuration not stated)
82 to 87 °C | CN1C(=O)CC(O)C1=O (configuration not stated)
119 to 121 °C | CNS(=O)(=O)c1ccccc1N1CCC(N)CC1
140 to 142 °C | O=C(O)COc1ccc(F)cc1Cl
209 to 211 °C | COCCNc1c(N)n(Cc2ccccc2)c(=O)[nH]c1=O
210 to 212 °C | COC(=O)c1ccc2c(=O)[nH]c(CCl)nc2c1
162 to 164 °C | O=C(O)C(Cc1ccccc1)n1cnnn1 (configuration not stated)
179 to 181 °C | Nc1nnc(Cl)s1
144 to 146 °C | O=C(O)Cc1coc(-c2ccc(F)c(F)c2)n1
179 to 181 °C | CC(O)C1NC(=O)NC1=O (configuration not stated)

melting point | Compound
134 to 136 °C | O=C(O)c1cccn1Cc1cccs1
108 to 110 °C | CCOC(=O)c1[nH]c(C)c(C(=O)OCC)c1CC
122 to 124 °C | Nc1cc2c(cc1N)OCCCO2
79 to 81 °C | CC(=O)NCc1ccc(C(=O)C(C)Cl)s1 (configuration not stated)
93 to 95 °C | Nc1ccc(F)c(-n2nnnc2C2CC2)c1
73 to 75 °C | CCc1nc(N)sc1C
74 to 76 °C | CC(=O)CSc1ccccc1[N+](=O)[O-]
133 to 135 °C | COc1ccc(C(=O)N2CCCCCC2)cc1N
179 to 181 °C | CCn1c(=O)n(CCC(=O)O)c2ccccc21
74 to 76 °C | Nc1ccc(Oc2ccc(F)cc2)cn1
75 to 77 °C | CC(Cl)C(=O)Nc1ccccc1Br (configuration not stated)
149 to 151 °C | C=CC(=O)NC(=O)Nc1ccccc1
173 to 176 °C | Sc1ccc2ccccc2n1
72 to 74 °C | NNC(=O)CCc1ccco1
256 to 258 °C | NC(=S)Cn1ccc(=O)[nH]c1=O
218 to 220 °C | CCOC(=O)c1c(C)nn2c(=O)cc(CCl)[nH]c12
128 to 129 °C | COc1ccccc1C(=O)NC(C(=O)O)C(C)C (configuration not stated)
129 to 131 °C | O=C(O)C1CC2CCCC(C1)C2=O (configuration not stated)
70 to 72 °C | CCCCNc1nc2ccc(C)cc2s1
129 to 131 °C | CC(CC(=O)O)NC(=O)OCc1ccccc1 (configuration not stated)
234 to 236 °C | Cc1ccc(C(=O)O)cc1NS(=O)(=O)c1ccc(F)cc1
145 to 147 °C | Nc1ccc(NC(=O)C2CC2)cc1C(F)(F)F
136 to 138 °C | NS(=O)(=O)C#Cc1ccccc1
204 to 206 °C | Sc1ncccc1Cl

melting point | Compound
129 to 131 °C | CC(C)(C)c1ccc(C(=O)NCCC(=O)O)cc1
39 to 41 °C | Cn1ccnc1CC#N
90 to 92 °C | Cc1cc(C)n(CCS(C)(=O)=O)n1
57 to 59 °C | CC(c1ccccc1)c1ccc(O)cc1 (configuration not stated)
94 to 98 °C | O=c1cccn[nH]1
91 to 93 °C | Cn1cc([N+](=O)[O-])cn1
164 to 166 °C | O=C(O)c1ccccc1NS(=O)(=O)C(F)(F)F
131 to 133 °C | CC(C)OCc1c(C(=O)O)oc2ccccc12
102 to 104 °C | CC(=O)CCc1ccc(OCCC(=O)O)cc1
131 to 133 °C | CC(C)NC(=O)c1ccc(Cl)c(N)c1
71 to 73 °C | CNc1sccc1C#N
101 to 103 °C | CC(CC(=O)O)c1ccc(Br)cc1 (configuration not stated)
179 to 181 °C | Oc1ccc(OCc2ccncc2)cc1
100 to 102 °C | CCN(CC)S(=O)(=O)c1ccc(OC)c(NC(=O)CCl)c1
113 to 115 °C | CCCCc1ccc(C(=O)CCC(=O)O)cc1
233 to 235 °C | CC1(C)C(=O)Nc2ccc(C(=O)CCl)cc21
100 to 102 °C | N#Cc1ccc(Cl)cc1NCc1ccccn1
144 to 146 °C | Nc1ccn(Cc2cn3ccccc3n2)n1
219 to 221 °C | Nc1ccc(Cl)nc1C(=O)O
89 to 91 °C | N#CC=Cc1ccc(C(F)(F)F)cc1
283 to 285 °C | NC(Cc1c[nH]c2cc(F)ccc12)C(=O)O (configuration not stated)
152 to 154 °C | O=C(O)CCc1nc(-c2ccc(Cl)cc2)no1
235 to 237 °C | Nc1ccc(N2CCOCC2)cc1C(=O)O
58 to 60 °C | O=C(Nc1cccs1)OCC(F)(F)F

melting point | Compound
231 to 233 °C | COc1ccc(-n2c(C)c(C)c3c(N)ncnc32)cc1
184 to 186 °C | O=C(Nc1cccc(O)c1)C1CC1
148 to 150 °C | Sc1ccc(Cl)nn1
135 to 137 °C | C=CCn1c(S)n[nH]c1=O
314 to 316 °C | Cn1c(=O)n(C)c2cc(S(N)(=O)=O)c(Br)cc21
230 to 232 °C | CN1CCN(S(=O)(=O)c2cccc(C(=O)O)c2)CC1
114 to 116 °C | Cc1ccc(C(=O)NC2CC2)cc1N
58 to 60 °C | Nc1ccc(Oc2ccc(Br)cc2)cc1
167 to 169 °C | O=C(O)c1ccc(Oc2ccc(Cl)cc2)c(Cl)c1
115 to 117 °C | CC(NC(=O)CC#N)c1ccccc1 (configuration not stated)
207 to 209 °C | O=C1CNc2ccccc2C(=O)N1
229 to 231 °C | O=C(O)c1oc2cc(Cl)ccc2c1-c1ccccc1
49 to 51 °C | CCNS(=O)(=O)c1cccc(F)c1
132 to 134 °C | NC(=S)c1ccco1
165 to 167 °C | Cc1c(C(=O)O)nnn1-c1ccccc1Cl
104 to 106 °C | N#CCc1c[nH]c2ccc(Cl)cc12
120 to 122 °C | CCOC(=O)c1sc(-c2ccc(OC)cc2)cc1N
221 to 223 °C | Nc1ccc2[nH]c(=O)sc2c1
176 to 178 °C | Nc1ccc(N2CCSCC2)cc1C(=O)O
196 to 198 °C | Nc1nnc(Cc2ccccc2Cl)o1
119 to 121 °C | O=c1cc(CS)nc2ccccn12
130 to 132 °C | Cc1ccc(SC2CCCC2)c(C(=O)O)c1

Compound | melting point
NCC(O)c1ccc(F)cc1 (configuration not stated) | 65 to 67 °C
ClCc1csc(-c2ccco2)n1 | 76 to 78 °C
CC(C)(C)OC(=O)N1CC2NCCOC2C1 (configuration not stated) | 54 to 56 °C
CC(C)Oc1ccc(C(O)CN)cc1 (configuration not stated) | 62 to 64 °C
CCNCC(O)c1ccc(C)cc1 (configuration not stated) | 88 to 90 °C
